Source: PMC11204543, “Halenaquinol Blocks Staphylococcal Protein A Anchoring on Cell Wall Surface by Inhibiting Sortase A in Staphylococcus aureus” (Marine Drugs, 2024)
Values after ≈ are worked out from the molar mass of the structure shown. Values joined by “and” are separate entries in the source; they are usually repeats but may differ in a detail not shown here. Equal values may be shown once. “Also recorded” adds a separate entry of the source. Where a name gives a salt, the structure may show the parent alone. Read-outs that look alike come from different tables or passages of the source.

What was measured:
[1] = test system: S. aureus SrtA; conditions: cited from earlier work
[2] = target: T1, Recombinant SrtA from S. aureus ATCC6538p (Staphylococcus aureus, UniProt Q2FV99); test: SrtA inhibition assay (fluorescence-based enzymatic assay, Abz-LPETG-Dnp substrate); type: biochemical; conditions: for IC50: SrtA IC50, recombinant SrtA from S. aureus ATCC6538p, mean ± SD (n = 3); for SrtA inhibitory activity in words: similar to that of quercetin
T1 construct: no tag is named in the print; made in house; host or cells: Escherichia coli
Experimental: (§1) The SrtA inhibitory activity of compounds 1–6, along with that of a known SrtA inhibitor, quercetin [24], was evaluated in vitro using a fluorescence-based enzymatic assay. Recombinant SrtA from S. aureus ATCC6538p was expressed in Escherichia coli and was purified using nickel affinity chromatography. The cleavage of a synthetic peptide substrate by the SrtA enzyme emitted fluorescence, which was then measured. Table 1 presents the half maximal inhibitory concentration (IC50) values calculated from SrtA inhibition rates. […] As SrtA inhibitors act as anti-infective agents by disrupting bacterial pathogenesis without affecting microbial viability, minimum inhibitory concentration (MIC) values were examined to determine their effects on bacterial cell growth.
To determine the type of inhibition, kinetic studies were performed with halenaquinol at IC50 or twofold IC50 based on a Lineweaver and Burk plot (Figure 2A). Inhibitor constants were obtained by a Dixon plot (Figure 2B). […] Moreover, the binding of halenaquinol to SrtA was reversible because the enzyme activity was recovered by dialysis, excluding the possible existence of a covalent bond between inhibitor and enzyme.
The recombinant SrtA protein from S. aureus ATCC6538p was prepared using a previously described method. Each reaction comprised a 100 μL mixture containing a reaction buffer (50 mM Tris-HCl pH 7.5, 150 mM NaCl, and 5 mM CaCl2), 250 ng of synthetic fluorescent peptide substrate (Abz-LPETG-Dnp), 20 μg of SrtA, and varying concentrations of test samples. DMSO served as the negative control, while quercetin [24] was employed as the positive control. Test sample was dissolved in DMSO and then diluted with reaction buffer to yield a final DMSO concentration of 1%. The reaction mixture was aliquoted into a 96-well plate. Following the addition of SrtA, fluorescence intensity was determined using a microplate reader at excitation and emission wavelengths of 320 nm and 420 nm, respectively. The plate was then incubated for 1 h at 37 °C, and fluorescence intensity was measured. The effect of the inhibitor on SrtA was calculated as a percentage relative to the DMSO-treated control. The percentage of SrtA inhibition was calculated using the following equation: {1 − (Difference value of the test compound/Difference value of a negative control)} × 100. A 12-point, twofold serial dilution dose–response assay was performed independently in triplicate. The resultant dose–response concentration range was 128 to 0.1 μg/mL of inhibitor. Data were scaled to internal controls, and a four-parameter logistic model (SigmaPlot ver. 10.0) was used to fit the measured data and determine the IC50 values. In order to investigate the inhibition type and inhibition constant (Ki) values of halenaquinol, SrtA enzyme activity was monitored in various concentrations of substrate in the absence and presence of halenaquinol. All reactions were repeated three times and enzyme kinetics were evaluated using Lineweaver–Burk and Dixon plots.

[3] = test system: S. aureus ATCC6538p; test: Antibacterial activity (CLSI broth dilution MIC); type: cell-based; conditions: Staphylococcus aureus, 12 h
Experimental: as §1
An assessment of the antibacterial properties of the isolated compounds was conducted in accordance with the protocols provided by the Clinical and Laboratory Standard Institute (CLSI). The S. aureus ATCC6538p strain was cultivated overnight at 37 °C in Mueller–Hinton broth (MHB, BD Difco, Sparks, MD, USA). Subsequently, it was harvested using centrifugation, rinsed with sterilized deionized water, and adjusted to the optical density of a 0.5 McFarland standard (625 nm). Test compounds, initially dissolved in DMSO, were further diluted with MHB to achieve a range of 2-fold serial dilutions from 0.25 to 128 μg/mL (maintaining a final DMSO concentration of 1%). In a 96-well plate, 90 μL of the MHB containing the test compound were combined with 10 μL of broth inoculated with the bacterium (final bacterial concentration: 5 × 10^5 cfu/mL). Following a 12 h incubation at 37 °C, the MICs were determined as the lowest concentration at which bacterial growth was inhibited. Ampicillin (Duchefa, Amsterdam, The Netherlands) served as the reference standard.

[4] = test system: srtA and spa mRNA expression in S. aureus Newman; test: Semiquantitative reverse transcription PCR of srtA and spa mRNA; type: cell-based, Staphylococcus aureus
Description: To ascertain whether halenaquinol inhibits the transcription of srtA or blocks its function at an enzyme level without affecting the expression of the srtA gene, the mRNA expression level of srtA in response to various concentrations and exposure times of halenaquinol was initially explored using semi-quantitative reverse transcription PCR (RT-PCR). Total RNA isolated from S. aureus Newman was transcribed into cDNA, and it was used as a template to amplify the target genes. A time-course analysis assessed the impact of halenaquinol on srtA expression at different intervals from 0 to 60 min. […] Furthermore, the expression level of srtA was analyzed after 40 min of incubation at various concentrations of halenaquinol.
Figure 3 Effect of SrtA inhibitors on srtA and spa mRNA expression. S. aureus Newman cells were incubated in the presence of halenaquinol and quercetin. mRNA expression levels of cells were examined using semiquantitative RT-PCR. (A) The time courses of mRNA expression of gyrB and srtA were monitored. Total RNA was isolated from cells grown in medium containing 0.2% dimethyl sulfoxide (DMSO, negative control), halenaquinol or quercetin (positive control). (B) Cells were grown in medium containing the indicated concentrations of halenaquinol or quercetin. The gyrB gene was used as a loading control.
The S. aureus Newman strain was inoculated into 5 mL of trypticase soy broth (TSB) and incubated overnight at 37 °C with shaking. Cultures were diluted 1:100 into TSB and grown until the OD600 reached approximately 0.3. Cultures (5 mL) were aliquoted, and the test compound was added with less than 0.2% DMSO. The negative control group was treated with DMSO only. Cultures were then incubated at 37 °C with shaking and harvested at specific incubation times. Then, 1 mL of each culture was centrifuged, and the pellet was stored at −80 °C. RNA was isolated using the easy-BLUE total RNA extraction kit (iNtRON Biotechnology, Boston, MA, USA). […]

[5] = test system: SpA anchoring on cell wall surface of S. aureus Newman; test: SpA cell wall surface anchoring after trypsin removal, Western blot with anti-SpA antibody; type: cell-based, Staphylococcus aureus; conditions: trypsin-treated wild type, 1 h
Experimental: The anchoring of SpA on the cell-wall surface in S. aureus was measured using Western blot analysis with monoclonal anti-SpA antibody (Figure 4). […] Then, trypsin-treated wild-type S. aureus cells were incubated in medium containing an SrtA inhibitor, halenaquinol, over a concentration range of 1-to-4 times the IC50 values.
The effect of the test compound on the in vivo inhibition of S. aureus SrtA was investigated by quantifying the abundance of SpA, catalyzed by the transpeptidation of SrtA on the bacterial surface [26]. […] For this study, S. aureus Newman (wild-type), a human clinical isolate, and its isogenic srtA-deletion mutant (ΔsrtA) were utilized [6, 37]. These strains were inoculated into 5 mL of TSB and incubated for 16 h at 37 °C with shaking. Cultures were then diluted 1:100 into TSB and were grown until the OD600 reached approximately 0.5. Cells from a 10 mL culture were harvested, rinsed with phosphate-buffered saline (PBS, Sigma–Aldrich), suspended in 5 mL of PBS containing 0.2 mg/mL trypsin (Sigma-Aldrich), incubated at 37 °C with shaking for 1 h, and washed with PBS. Subsequently, the cells were incubated in 5 mL of TSB containing 1 mM phenylmethylsulfonyl fluoride (PMSF), with the test compound at 37 °C with shaking for 1 h. Negative control groups were treated with DMSO solvent instead of the test compound. Then, aliquots (1 mL) were removed, and the cells were harvested and stored at −80 °C.
S. aureus cells, prepared as described above, were suspended in 1 mL of ice-cold PBS containing 1 mM PMSF. A 1% (w/v) solution of Sulfo-NHS-SS-Biotin was prepared, and it was added (100 μL) to 1 mL of cells, resulting in a final concentration of 1.5 mM Sulfo-NHS-SS-Biotin. The cells were then incubated with gentle shaking at 80 rpm for 2 h on ice and were collected using centrifugation (4000× g, 5 min, 4 °C). To halt the biotinylation reaction, cells were washed three times with 1 mL of ice-cold PBS containing 500 mM glycine. Next, the cells were suspended in 500 μL of lysis buffer containing 100 μg/mL lysostaphin (Sigma–Aldrich) and 2 mM PMSF. […]

[6] = test system: SpA surface display on S. aureus Newman; test: Immunofluorescence microscopy of SpA surface display; type: cell-based, Staphylococcus aureus; conditions: 8 × IC50 (111.52 μM)
Experimental: Figure 5 Fluorescence microscopy images of SpA surface display. […] BF identifies the bright-field microscopy view of fluorescence microscopy images. Scale bar, […].
The surface display of SpA was visualized following established procedures. A solution of 0.01% poly-L-lysine (Sigma-Aldrich) was added to each well of an 8-well glass chamber slide (SPL) and incubated at 25 °C for 5 min to coat the slide. After washing each well with distilled water and ensuring complete drying, 1 mL of cells, prepared as described above for the re-expression of the cell surface protein, was suspended in PBS containing 0.05% Tween 80 (PBST) and was thoroughly vortexed. A total of 250 μL of suspension was removed and incubated at 25 °C for 20 min with 250 μL of PBS (2.4% paraformaldehyde, 0.006% glutaraldehyde, and 0.05% Tween 80). The fixed cells were washed twice with PBST, and 150 μL of cells were added to the coated slide and incubated at 25 °C for 5 min. […] After washing seven times, anti-fade fluorescence mounting medium (Abcam, Cambridge, UK) was added. […] Images were captured using AiryScan fluorescence detectors and a transmitted light detector (T-PMT) under 10× scan zoom, bidirectional scan, 4× averaging. All the images were analyzed in ZEN 2.1 software (Carl Zeiss).

[7] = test system: S. mutans SrtA; conditions: cited from earlier work

T1 sequence (Q2FV99 whole entry): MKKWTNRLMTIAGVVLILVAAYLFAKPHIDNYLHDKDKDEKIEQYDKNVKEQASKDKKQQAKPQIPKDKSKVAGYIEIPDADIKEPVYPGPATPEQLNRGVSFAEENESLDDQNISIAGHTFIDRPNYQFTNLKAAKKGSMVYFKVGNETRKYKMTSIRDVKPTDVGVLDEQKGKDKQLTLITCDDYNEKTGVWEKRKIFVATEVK

In the case of COc1cc2ccnc3c2c(c1O)N(C)C=C3 [isoaaptamine], the IC50 ([1]; S. aureus SrtA) is given as 16.2 µM.
In the case of C[C@]12CCCc3coc(c31)C(=O)c1cc3c(cc12)C(O)CCC3O (stereo partly drawn) [Compound 3, 13,14,15,16-tetrahydroxestoquinol], the IC50 [2] is reported as 51.8 µM and the MIC ([3]; ATCC6538P) is reported as 395 µM and > 128 µg/mL.
In the case of O=c1c(O)c(-c2ccc(O)c(O)c2)oc2cc(O)cc(O)c12 [Quercetin, quercetin, reference compound], the IC50 [2] is reported as 158 µM and the MIC ([3]; S. aureus ATCC6538p growth, 37 °C, read-out: MIC) is reported as > 424 µM and > 128 µg/mL.
With C[C@]12CCCc3coc(c31)C(=O)c1cc3c(cc12)C(=O)C=C(NCCS(=O)(=O)O)C3=O [Compound 5, secoadociaquinone B] the IC50 [2] was 131 µM, the “SrtA inhibitory activity in words” value [2] was “moderate inhibitory activities” and the MIC ([3]; ATCC6538P) was 290 µM and > 128 µg/mL.
For COc1ccc(/C(C#N)=C/c2cc(OC)ccc2OC)cc1 [(Z)-3-(2,5-dimethoxyphenyl)-2-(4-methoxyphenyl) acrylonitrile], the IC50 ([1]; SrtA inhibition) is given as 9.2 µM, the “manner of binding the enzyme” value [1] is given as “reversible” and the type of inhibition [1] is given as “competitive inhibitor”.
In the case of C[C@H]1OC(=O)c2cc3c(cc21)[C@@]1(C)CC[C@@H](O)c2coc(c21)C3=O [Compound 6, xestolactone A], the IC50 [2] is reported as 47.5 µM and the MIC ([3]; ATCC6538P) is reported as 395 µM and > 128 µg/mL.
For O=S(=O)(O)c1ccccc1-c1nn2c(-c3ccncc3)nnc2s1 [compound 6e, 3-(4-pyridinyl)-6-(2-sodiumsulfonatephenyl)[1,2,4]triazolo [3,4-b][1,3,4]thiadiazole], the IC50 ([1]; S. aureus SrtA) is given as 9.3 µM.
For C[C@@]12CCC(=O)c3coc(c31)C(=O)c1cc3c(O)ccc(O)c3cc12 [Compound 2, halenaquinol], the Ki [2] was 9.55 µM, the type of inhibition ([2]; Lineweaver-Burk plot at IC50 or twofold IC50) was “mixed inhibitor” and the IC50 [2] was 13.9 µM. The “reversibility of binding to SrtA” value ([2]; enzyme activity recovered by dialysis) was “reversible”, the “SrtA inhibitory potency relative to halenaquinol sulfate” value ([2]; ratio of IC50 values) was “approximately 9.2 times” and the MIC ([3]; ATCC6538P) was 383 µM and > 128 µg/mL. The “inhibition of the transcription of srtA and spA” value ([4]; S. aureus Newman, semi-quantitative RT-PCR) was “does not inhibit”, the “PCR band intensity representing mRNA expression of srtA and spa” value ([4]; after 40 min of incubation, increasing concentrations) was “slightly increased” and the “PCR band intensity representing srtA mRNA expression” value ([4]; time course 0 to 60 min, gyrB consistent) was “increased over time”. For the same compound, the “anchoring of SpA on cell wall surface” value ([5]; 1 × IC50 (13.94 μM)) was “no significant difference from the wild type”, the “reduction of SpA anchoring” value ([5]; 2 × IC50 (27.88 μM)) was “approximately 53%” and the “reduction of SpA anchoring” value ([5]; 4 × IC50 (55.76 μM)) was roughly 85%. For the same compound, the “SpA surface display / inhibition of SpA anchoring” value [6] was “comparable to those for an srtA-deletion mutant; also recorded: significantly reduced”.
For C[C@@]12CCC(=O)c3coc(c31)C(=O)c1cc3c(O)ccc(OS(=O)(=O)O)c3cc12 [Compound 1, halenaquinol sulfate], the IC50 [2] was 103 µM, the “SrtA inhibitory activity in words” value [2] was “moderate inhibitory activities” and the MIC ([3]; ATCC6538P) was 309 µM and > 128 µg/mL.
With C[C@@]12CCCc3coc(c31)C(=O)c1cc3c(O)ccc(OS(=O)(=O)O)c3cc12 [Compound 4, xestoquinol sulfate] the IC50 [2] was greater than 320 µM and the MIC ([3]; ATCC6538P) was 320 µM and > 128 µg/mL.
For O=C(c1nc(-c2c[nH]c3cc(Br)ccc23)c[nH]1)c1c[nH]c2cc(O)ccc12 [bromotopsentin], the IC50 ([1]; S. aureus SrtA) is listed as 39.6 µM.
In the case of O=C(NCCSSCCNC(=O)/C(Cc1ccc(O)c(Br)c1)=N/O)/C(Cc1ccc(O)c(Br)c1)=N/O [psammaplin A], the IC50 ([1]; S. aureus SrtA) is listed as 47.4 µM.
In the case of CC1(C)S[C@@H]2[C@H](NC(=O)[C@H](N)c3ccccc3)C(=O)N2[C@H]1C(=O)O [Ampicillin, reference compound], the MIC ([3]; ATCC6538P) is reported as 0.4 µM and 0.1 µg/mL.
For O=c1c(O)c(-c2cc(O)c(O)c(O)c2)oc2cc(O)cc(O)c12 [myricetin], the IC50 [7] is listed as 15.48 µg/mL (≈ 48.6 µM).
